Entries after “also recorded” stand apart in the source; their conditions may differ.
How the values were obtained:
[1] = mouse, in vivo; cited from earlier work
[2] = tested on: HP LNCAP prostate adenocarcinoma cells; assay: KI library screen for TRAIL sensitization; format: cell-based, human
Excerpt: (§1) A library of KIs was screened for TRAIL sensitization in various TRAIL-resistant cancer cells, including: HT29 (CRC), MDA-MB-231 (breast), LNCAP (prostate), DU145 (prostate), PC3 (prostate) and A549 (lung). […] The 355 KIs comprised of compounds targeting diverse kinases, including multi kinases, RTK (receptor kinase tyrosine), PI3K (phosphinistide 3-kinase), aurora kinases, including […] (mitogen-activated protein kinase). […] The interaction between KIs and TRAIL had been previously explored in vitro with the tyrosine KI sorafenib, a drug similar to regorafenib. However, such studies were mostly performed on cellular levels and not in in vivo models, combined with systemically administered recombinant TRAIL. Although a similar structure, regorafenib was newly approved in 2012. The interactions between the three other selected KIs and TRAIL have not been previously reported, in vitro or in vivo.
(§2) Regorafenib potentiated TRAIL-induced apoptosis in prostate cancer cells (LNCAP, HPLNCAP (High Passages LNCAP), DU-145 and PC-3) when combined with TRAILPEG (1 μg/mL) (FIG. 5). After treating cells with regorafenib (5 μM), caspases and anti-apoptotic proteins were analyzed by western blotting (FIG. 6A-FIG. 6C). […] Data confirmed that FDA-approved KIs or KIs under clinical development synergized with long-acting TRAILPEG by overcoming TRAIL-resistance through unique TRAIL sensitization mechanisms.

[3] = tested on: A549 lung carcinoma cells; assay: KI library screen for TRAIL sensitization; format: cell-based, human
Excerpt: as §1

[4] = tested on: PC3 prostate adenocarcinoma cells; assay: KI library screen for TRAIL sensitization; format: cell-based, human
Experimental: FIG. 2B depicts a bar graph showing quantified cell death after analyzing synergized cell death induced by TRAILPEG (1 μg/mL for 3 hr) and kinase inhibitors (KIs) in HT29 (human colon tumor cell line) and PC3 (human prostate tumor cell line) cells individually pretreated with selected 355 KIs. Relative cell death rates were calculated by [KI+TRAILPEG]/[KI alone] after separate MTT assays. The arrows indicate KIs with >60% cell death; n=3.
as §1

[5] = tested on: DU-145 prostate adenocarcinoma cells; assay: KI library screen for TRAIL sensitization; format: cell-based, human
Excerpt: as §1

[6] = tested on: LNCAP prostate adenocarcinoma cells; assay: KI library screen for TRAIL sensitization; format: cell-based, human
Excerpt: as §1

[7] = tested on: prostate cancer cells (LNCAP, DU145, PC-3); assay: Western blot of prostate cancer cells, regorafenib alone or with TRAILPEG (FIG. 6A-6C); format: cell-based, human
Experimental: (§3) FIG. 5 depicts a bar graph showing results of tumor volumes in mice bearing TRAIL-resistant HT29 tumors treated with three rounds of TRAILPEG (150 μg, i.v), oral regorafenib (10 mg/kg) or oral regorafenib with TRAILPEG within days (12-17) after tumor inoculation. Mice were sacrificed on day 27. […] FIG. 6A depicts a Western blot analysis of LNCAP prostate cancer cells with regorafenib alone or in combination with TRAILPEG.
FIG. 6B depicts a Western blot analysis of DU145 prostate cancer cells with regorafenib alone or in combination with TRAILPEG.
FIG. 6C depicts a Western blot analysis of PC-3 prostate cancer cells with regorafenib alone or in combination with TRAILPEG.
as §2

HT29 xenografts = assay: TRAIL-resistant HT29 tumor xenograft; format: in vivo; settings: oral regorafenib 10 mg/kg days 12, 14, 16; TRAILPEG 150 μg i.v. days 13, 15, 17; sacrifice day 27
Experimental: as §3
The therapeutic combination of oral regorafenib and TRAILPEG in HT29 xenografts in comparison to regorafenib and TRAILPEG alone (FIG. 7) were investigated. HT29 xenografts were treated with oral regorafenib (10 mg/kg) or saline on the 12th, 14th, and 16th days of tumor inoculation. On the 13th, 15th, and 17th days, animals were given an i.v. dose of TRAILPEG (150 μg). Animals were sacrificed on day 27.

HT29 cells [8] = assay: Western blot of caspases and anti-apoptotic proteins, regorafenib alone or with TRAILPEG (FIG. 3B); format: cell-based, human
Experimental: FIG. 3B depicts a Western blot analysis of HT29 cells with regorafenib alone or in combination with TRAILPEG.
as §2, with “HT-29” for “prostate cancer”, “cells” for “cells (LNCAP, HPLNCAP (High Passages LNCAP), DU-145 and PC-3)”, “3A).” for “5).”, “(2” for “(5”, “3B).” for “6A-FIG. 6C).”

HT29 cells [9] = assay: qPCR of death receptors and decoy receptors (FIG. 4A); format: cell-based, human; settings: regorafenib 2 μM
Experimental: FIG. 4A depicts a bar graph showing qPCR analysis of death receptors (DRs) and decoy receptors (DcRs) in HT29 cells treated with regorafenib for 24 hours or 48 hours as indicated; *P<0.05, **P<0.01, ***P<0.001 versus control.
(§4) HT29 cells were treated with regorafenib (2 μM) for 24 hour or 48 hour as indicated. mRNAs for TRAIL receptors were measured by quantitative RT-PCR (qPCR) (FIG. 4A). […] After treating HT29 cells with regorafenib as indicated, DR4/5 or anti-apoptotic proteins were analyzed by Western blot (FIG. 4B). […] Conversely, anti-apoptotic proteins MCL-1 and BCL-2 were absent in HT29 cells treated with regorafenib for 48 hours. It has been previously reported that TRAIL receptors could be induced by signaling including NF-κB, ER stress, and JNK-ROS.

HT29 cells [10] = assay: Western blot of DR4/5 and anti-apoptotic proteins (FIG. 4B); format: cell-based, human; settings: regorafenib, 48 hours
Experimental: as §4

[11] = tested on: prostate cancer cells (LNCAP, HPLNCAP, DU-145 and PC-3); assay: Quantified cell death after regorafenib and TRAILPEG in prostate cancer cells; format: cell-based, human; settings: regorafenib 5 μM combined with TRAILPEG 1 μg/mL
Experimental: FIG. 7 is a bar graph showing that regorafenib enhanced TRAILPEG-induced apoptosis in prostate cancer cells. Quantified cell death after combinatorial treatment with regorafenib (5 μM) and TRAILPEG (1 μg/mL) in various prostate cancer cells is shown. *P<0.05, **P<0.01, ***P<0.001 versus control (regorafenib only).
as §2

HT29 (CRC) cells = assay: KI library screen for TRAIL sensitization (KI pretreatment, then TRAILPEG; MTT cell death assay); format: cell-based, human
Experimental: The screening is performed using an MTT cell death assay in CRC cells with different TRAIL sensitivities.

HT-29 cells = assay: Quantified cell death after combinatorial treatment with regorafenib and TRAILPEG (FIG. 3A); format: cell-based, human; settings: regorafenib combined with TRAILPEG 1 μg/mL
Experimental: FIG. 3A depicts a bar graph showing that regorafenib (an oral, multi-kinase inhibitor) enhanced TRAILPEG -induced apoptosis in colorectal cancer (CRC) cells. Quantified cell death after combinatorial treatment with regorafenib and TRAILPEG (1 μg/mL) in HT-29 cells is shown.
as §2, with “HT-29” for “prostate cancer”, “cells” for “cells (LNCAP, HPLNCAP (High Passages LNCAP), DU-145 and PC-3)”, “3A).” for “5).”, “(2” for “(5”, “3B).” for “6A-FIG. 6C).”

[12] = tested on: MDA-MB-231 breast cancer cells; assay: KI library screen for TRAIL sensitization; format: cell-based, human
Excerpt: as §1

[13] = regorafenib 5 μM combined with TRAILPEG

Molecule: 2K-PEG-TRAIL: TRAIL derivatized with 2K PEG (Kim, et al.)
- circulating half-life [1]: 3.9 h

Molecule: 20K-PEG-TRAIL: TRAIL derivatized with 20K PEG (Kim, et al.)
- circulating half-life [1]: 12.3 h

Molecule: C=CC(=O)Nc1cccc(Oc2nc(Nc3ccc(N4CCN(C)CC4)cc3OC)ncc2Cl)c1 [WZ4002]
- KIs that sensitize cancer cells to TRAIL-based agents [2]: Example KIs that sensitize cancer cells to TRAIL-based agents.
- KIs that sensitize cancer cells to TRAIL-based agents [3]: Example KIs that sensitize cancer cells to TRAIL-based agents.

Molecule: COc1cc(N2CCC(N)CC2)ccc1Nc1ncc(Cl)c(-c2c[nH]c3ccccc23)n1 [AZD3463]
- KIs that sensitize cancer cells to TRAIL-based agents [4]: Example KIs that sensitize cancer cells to TRAIL-based agents.
- KIs that sensitize cancer cells to TRAIL-based agents [5]: Example KIs that sensitize cancer cells to TRAIL-based agents.

Molecule: CC(C)(C)c1cc(C=C(C#N)C#N)cc(C(C)(C)C)c1O [Tyrphostin 9]
- KIs that sensitize cancer cells to TRAIL-based agents [4]: Example KIs that sensitize cancer cells to TRAIL-based agents.
- KIs that sensitize cancer cells to TRAIL-based agents [2]: Example KIs that sensitize cancer cells to TRAIL-based agents.
- KIs that sensitize cancer cells to TRAIL-based agents [6]: Example KIs that sensitize cancer cells to TRAIL-based agents.
- KIs that sensitize cancer cells to TRAIL-based agents [5]: Example KIs that sensitize cancer cells to TRAIL-based agents.

Molecule: 30K-PEG-TRAIL: TRAIL derivatized with 30K PEG (Kim, et al.)
- circulating half-life [1]: 17.7 h

Molecule: CCOc1cc2ncc(C#N)c(Nc3ccc(OCc4ccccn4)c(Cl)c3)c2cc1NC(=O)/C=C/CN(C)C [Neratinib (HKI-272), Neratinib]
- KIs that sensitize cancer cells to TRAIL-based agents [5]: Example KIs that sensitize cancer cells to TRAIL-based agents.

Molecule: 10K-PEG-TRAIL: TRAIL derivatized with 10K PEG (Kim, et al.)
- circulating half-life [1]: 6.2 h

Molecule: C=CC(=O)Nc1ccc2ncnc(Nc3cccc(Br)c3)c2c1 [PD168393]
- KIs that sensitize cancer cells to TRAIL-based agents [2]: Example KIs that sensitize cancer cells to TRAIL-based agents.

Molecule: CNC(=O)c1cc(Oc2ccc(NC(=O)Nc3ccc(Cl)c(C(F)(F)F)c3)c(F)c2)ccn1 [Regorafenib (BAY 73-4506), Regorafenib]
- KIs that sensitize cancer cells to TRAIL-based agents [4]: Example KIs that sensitize cancer cells to TRAIL-based agents.
- KIs that sensitize cancer cells to TRAIL-based agents [2]: Example KIs that sensitize cancer cells to TRAIL-based agents.
- anti-apoptotic protein MCL-1 [7, 13]: downregulated
- caspase-dependent TRAILPEG-induced apoptosis (PARP-1 cleavage, caspase activation) [7, 13]: significantly sensitized
- apoptosis by single agent ([7]; regorafenib or TRAILPEG alone): did not induce strong apoptosis
- tumor growth / tumor volume (HT29 xenografts): moderate tumor reduction
- RIP-1 (HT29 cells [8]): dose-dependently downregulated
- anti-apoptotic proteins c-FLIP, MCL-1, BCL-2, and BCL-XL (HT29 cells [8]; regorafenib 2 μM): downregulated
- caspase-dependent TRAILPEG-induced apoptosis (PARP-1 cleavage, caspase activation) (HT29 cells [8]; regorafenib 2 μM): significantly sensitized
- DR4 mRNA (HT29 cells [9]; 24 or 48 hour): significantly upregulate; also recorded: upregulated
- DRS mRNA (HT29 cells [9]; 24 or 48 hour): minimally induced
- DcR2 expression (HT29 cells [9]; 48 hour): down-regulating; also recorded: rarely detectable
- DR4 protein (HT29 cells [10]; listed as Regorafenib): highly expressed
- DR4 protein (HT29 cells [10]; listed as regorafenib): up-regulation
- anti-apoptotic proteins MCL-1 and BCL-2 (HT29 cells [10]; listed as regorafenib): absent; also recorded: down-regulated
- TRAIL-induced apoptosis ([11]; listed as Regorafenib): potentiated
- TRAIL-induced apoptosis ([11]; listed as regorafenib): enhanced
- efficacy when combined with TRAILPEG (relative cell death, KI+TRAILPEG / KI alone) (HT29 (CRC) cells; HT29 cells pretreated with KI for 24 hours before TRAILPEG): synergistic efficacy
- KIs that sensitize cancer cells to TRAIL-based agents (HT29 (CRC) cells; HT-29 colorectal adenocarcinoma): Example KIs that sensitize cancer cells to TRAIL-based agents.
- TRAIL-induced apoptosis (HT-29 cells; listed as Regorafenib): potentiated
- TRAIL-induced apoptosis (HT-29 cells; listed as regorafenib): enhanced

Molecule: C=CC(=O)Nc1ccc2ncnc(Nc3ccc(OCc4cccc(F)c4)c(Cl)c3)c2c1 [AST-1306]
- KIs that sensitize cancer cells to TRAIL-based agents [4]: Example KIs that sensitize cancer cells to TRAIL-based agents.
- KIs that sensitize cancer cells to TRAIL-based agents [5]: Example KIs that sensitize cancer cells to TRAIL-based agents.

Molecule: Cn1cc(-c2ccc3nnc(Sc4ccc5ncccc5c4)n3n2)cn1 [SGX-523]
- KIs that sensitize cancer cells to TRAIL-based agents [2]: Example KIs that sensitize cancer cells to TRAIL-based agents.
- KIs that sensitize cancer cells to TRAIL-based agents [6]: Example KIs that sensitize cancer cells to TRAIL-based agents.

Molecule: 5K-PEG-TRAIL: TRAIL derivatized with 5K PEG (Kim, et al.)
- circulating half-life [1]: 5.3 h

Molecule: COc1cc2ncnc(Nc3ccc(F)c(Cl)c3)c2cc1NC(=O)/C=C/CN1CCCCC1 [Dacomitinib (PF299804, PF299), Dacomitinib]
- KIs that sensitize cancer cells to TRAIL-based agents [12]: Example KIs that sensitize cancer cells to TRAIL-based agents.
- KIs that sensitize cancer cells to TRAIL-based agents [5]: Example KIs that sensitize cancer cells to TRAIL-based agents.

Molecule: COc1cc2nccc(Oc3ccc(NC(=O)NC4CC4)c(Cl)c3)c2cc1C(N)=O [Lenvatinib (E7080), Lenvatinib]
- KIs that sensitize cancer cells to TRAIL-based agents [2]: Example KIs that sensitize cancer cells to TRAIL-based agents.

Molecule: COc1cc2c(Oc3ccc(NC(=O)C4(C(=O)Nc5ccc(F)cc5)CC4)cc3F)ccnc2cc1OCCCN1CCOCC1 [Foretinib (GSK1363089), Foretinib]
- KIs that sensitize cancer cells to TRAIL-based agents [5]: Example KIs that sensitize cancer cells to TRAIL-based agents.

Molecule: COCCOc1ccc2c(c1)ncn2-c1ccc2cccc(N3CCC(N)CC3)c2n1 [CP-673451]
- KIs that sensitize cancer cells to TRAIL-based agents [4]: Example KIs that sensitize cancer cells to TRAIL-based agents.
- KIs that sensitize cancer cells to TRAIL-based agents [3]: Example KIs that sensitize cancer cells to TRAIL-based agents.

— US20210169984A1, “SENSITIZING CANCER TO DEATH RECEPTOR AGONISTS WITH KINASE INHIBITORS” (The Johns Hopkins University, priority 2016, published 2021)
